In patent US12612412B2, “Antiviral heterocyclic compounds” (Enanta Pharmaceuticals, Inc., priority 2021, dated 2026) one finds EC50 data, which are given here for 39 molecules.

The test system of test [1] is genotype A, "Long" strain RSV. The test can be described thus: RSV-A assay (CPE protection in Hep-2 cells, ATPlite readout). It is filed as cell-based, Human respiratory syncytial virus (HRSV). Particulars: human respiratory syncytial virus, MOI 0.1, CPE protection. Put shortly: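 Hep-2 cells (8,000/well) were treated with 2-fold serial compound dilutions in duplicate and infected with RSV at MOI 0.1. After 5 days, protection from cytopathic effect was measured as cell viability by ATPlite luminescence, and EC50 values were derived.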
On the technique in general: Cellular ATP, detected with luciferase, serves as a proxy for viable cell number.

The subject of test [2] is HMPV clinical isolate TN/1501/A1. The test can be described thus: HMPV antiviral assay Method-B (clinical isolate TN/1501/A1 in LLC-MK2 cells, ATP-Lite readout). The following applies: human metapneumovirus, LLC-MK2, 144 h, hMPV WT1501 (clinical isolate TN/1501/A1), 6 days. It is filed as cell-based, Human metapneumovirus (HMPV). The method, boiled down: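 LLC-MK2 cells infected in suspension with TN/1501/A1 at MOI 0.014 in serum-free medium with 2 μg/mL TPCK-trypsin (final), incubated 6 days at 37° C. Compounds tested in duplicate, 10-point 3-fold dilutions from 10 μM. Cell health read by ATP-Lite luminescence, normalised to virus-only and cells-only controls; EC50 by four-parameter logistic fit.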

The mark [3] stands for this setting: genotype A “Long” strain RSV, read-out: Human RSV-A (“Long”).
[4] abbreviates: RSV-A Long strain, read-out: Human RSV-A (“Long”) EC50.

Where two headings read alike, the source gives them in different places. Where only a bound is given, the exact number is not on record here.

In the case of `COc1cc(C(=O)NC[C@](O)(c2cc3c(c(-c4cc(Cl)c(F)cc4F)n2)OC[C@]3(C)C(N)=O)C2CC2)cc2cc(Cl)c(C)nc12` [Example 666], the EC50 is under 0.2 µM in test [1] (setting [3]) and under 0.5 µM in test [2].

Turning to `C[C@@H](O)COc1ccc(C(=O)NC[C@](O)(c2cc3c(c(-c4ccc5c(c4)OC(F)(F)O5)n2)OC[C@]3(C)C(N)=O)C(F)(F)F)cc1OC1CC1` [Example 818], the values for the EC50 in test [1] (setting [3]) and in test [2] were under 0.2 µM and under 0.5 µM, respectively.

On to `Cc1cnc2c(Cl)cc(C(=O)NC[C@](O)(c3cc4c(c(-c5cc(F)c(F)cc5F)n3)OC[C@]4(C)C(N)=O)C3CC3)cc2c1` [Example 1153], for which the figures for the EC50 in test [1] (setting [4]) and in test [2] were under 0.2 µM and under 0.5 µM, respectively.

For `C[C@]1(C(N)=O)COc2c1cc([C@@](O)(CNC(=O)c1cc(OC3CC3)c3ncc(C#N)cc3c1)C(F)(F)F)nc2-c1ccc(F)cc1` [Example 1133], the EC50 is under 0.2 µM in test [1] (setting [4]) and over 0.5 µM in test [2].

As to `COc1cc(C(=O)NC[C@](O)(c2cc3c(c(-c4ccc(F)cc4Cl)n2)OC[C@]3(C)C(N)=O)C2CC2)cc2cn(C(F)F)nc12` [Example 656], the EC50 was under 0.2 µM in test [1] (setting [3]) and under 0.5 µM in test [2].

Consider `COc1cc(C(=O)NC[C@](O)(c2cc3c(c(-c4ccc(F)cc4)n2)OC[C@]3(CF)C(N)=O)C2CC2)cc2cc(Cl)c(C)nc12` [Example 1056], for which the EC50 in test [1] (setting [4]) is under 0.2 µM; in test [2], under 0.5 µM.

Consider `COc1cc(C(=O)NC[C@](O)(c2cc3c(c(-c4ccc(F)c(Cl)c4F)n2)OC[C@]3(C)C(N)=O)C2(F)CC2)cc2cn(C(F)F)nc12` [Example 754], for which the values for the EC50 in test [1] (setting [3]) and in test [2] were under 0.2 µM and under 0.5 µM, respectively.

Consider `COc1cc(C(=O)NC[C@](O)(c2nc(-c3ccc(F)cc3)c3c(c2F)[C@](C)(C(N)=O)CO3)C(F)(F)F)cc2cn(C3CC3)nc12` [Example 850], for which the EC50 in test [1] (setting [4]) was under 0.2 µM; in test [2], over 0.5 µM.

In the case of `COc1cc(C(=O)NC[C@](O)(c2cc3c(c(-c4ccc(F)c(F)c4F)n2)OC[C@]3(C)C(N)=O)C2(F)CC2)cc2cn(C(F)F)nc12` [Example 744], the EC50 in test [1] (setting [3]) was under 0.2 µM; in test [2], under 0.5 µM.

Take `COc1cc(C(=O)NC[C@](O)(c2cc3c(c(-c4ccc(F)cc4Cl)n2)OC[C@]3(C)C(N)=O)C2CC2)cc2cn(C3(Cl)CC3)nc12` [Example 844]: the values for the EC50 in test [1] (setting [4]) and in test [2] were under 0.2 µM and under 0.5 µM, respectively.

On to `COc1cc(C(=O)NC[C@@](O)(c2cc3c(c(-c4ccc5c(c4)OC(F)(F)C(F)(F)O5)n2)OC[C@]3(C)C(N)=O)C(F)(F)F)cc2cn(C3CC3)nc12` [Example 954], for which the values for the EC50 in test [1] (setting [4]) and in test [2] were under 0.2 µM and over 0.5 µM, respectively.

Turning to `C[C@]1(C(N)=O)COc2c1cc([C@@](O)(CNC(=O)c1cc(OCC(F)F)c3nn(C4(F)CC4)cc3c1)C(F)(F)F)nc2-c1cc(Cl)c(F)cc1F` [Example 617], the EC50 is under 0.2 µM in test [1] (setting [3]) and under 0.5 µM in test [2].

As for `COc1cc(C(=O)NC[C@](O)(c2cc3c(c(-c4cc(Cl)ccc4F)n2)OC[C@]3(C)C(N)=O)C2CC2)cc2cc(Br)c(C)nc12` [Example 1189], the results for the EC50 in test [1] (setting [4]) and in test [2] were under 0.2 µM and under 0.5 µM, respectively.

On to `COc1cc(C(=O)NC[C@](O)(c2cc3c(c(-c4ccc(F)c(F)c4F)n2)OC[C@]3(C)C(N)=O)C(F)(F)F)cc2cn(C3(F)CC3)nc12` [Example 522], for which the EC50 in test [1] (setting [3]) was under 0.2 µM; in test [2], under 0.5 µM.

Take `Cc1cnc2c(OC(F)F)cc(C(=O)NC[C@](O)(c3cc4c(c(-c5ccc(F)cc5)n3)OC[C@]4(C)C(N)=O)C(F)(F)F)cc2c1` [Example 493]: the EC50 in test [1] (setting [3]) is under 0.2 µM; in test [2] it was under 0.5 µM.

For the molecule `COc1cc(C(=O)NC[C@](O)(c2cc3c(c(-c4csc5c(F)cccc45)n2)OC[C@]3(C)C(N)=O)C2CC2)cc2cn(C3CC3)nc12` [Example 593], the results for the EC50 in test [1] (setting [3]) and in test [2] were under 0.2 µM and under 0.5 µM, respectively.

Take `COc1cc(C(=O)NC[C@](O)(c2cc3c(c(-c4ccc(F)c(Cl)c4)n2)OC[C@@]3(C(N)=O)C(F)F)C2CC2)cc2cn(C(F)F)nc12` [Example 1045]: the EC50 in test [1] (setting [4]) was under 0.2 µM; in test [2], under 0.5 µM.

On to `COc1cc(C(=O)NC[C@](O)(c2cc3c(c(-c4csc5c(F)cccc45)n2)OC[C@]3(C)C(N)=O)C2CC2)cc2cc(Cl)c(C)nc12` [Example 595], for which the EC50 is under 0.2 µM in test [1] (setting [3]) and under 0.5 µM in test [2].

As to `C[C@]1(C(N)=O)COc2c1cc([C@@](O)(CNC(=O)c1cc(OCCF)c3nn(C4(F)CC4)cc3c1)C(F)(F)F)nc2-c1ccc(F)cc1` [Example 878], the EC50 in test [1] (setting [4]) was under 0.2 µM; in test [2], over 0.5 µM.

With `COc1cc(C(=O)NC[C@@](O)(c2cc3c(c(-c4ccc(OC(F)F)c(F)c4)n2)OC[C@]3(C)C(N)=O)C(F)(F)F)cc2cn(C3CC3)nc12` [Example 919], the EC50 was over 0.2 µM in test [1] (setting [4]) and over 0.5 µM in test [2].

Turning to `COc1cc(C(=O)NC[C@](O)(c2cc3c(c(-c4ccc(Cl)c(F)c4F)n2)OC[C@]3(C)C(N)=O)C2CC2)cc2cn(C3(F)CC3)nc12` [Example 685], the EC50 in test [1] (setting [3]) is under 0.2 µM; in test [2], under 0.5 µM.

Turning to `COc1cc(C(=O)NC[C@](O)(c2cc3c(c(-c4cc(F)c(F)c(Cl)c4)n2)OC[C@]3(C)C(N)=O)C2CC2)cc2cc(Br)cnc12` [Example 789], the EC50 in test [1] (setting [3]) is under 0.2 µM; in test [2], under 0.5 µM.

Take `Cc1cnc2c(OC(F)F)cc(C(=O)NC[C@](O)(c3cc4c(c(-c5ccc(F)cc5)n3)OC[C@]4(C)C(N)=O)C3CC3)cc2c1` [Example 495]: the EC50 in test [1] (setting [3]) is under 0.2 µM; in test [2], under 0.5 µM.

For `COc1cc(C(=O)NC[C@](O)(c2cc3c(c(-c4ccc(F)c(Cl)c4F)n2)OC[C@]3(C)C(N)=O)C2(F)CC2)cc2cc(Br)cnc12` [Example 768], the results for the EC50 in test [1] (setting [3]) and in test [2] were under 0.2 µM and under 0.5 µM, respectively.

Take `COc1cc(C(=O)NC[C@](O)(c2cc3c(c(-c4ccc(F)c(C(F)(F)F)c4)n2)OC[C@]3(C)C(N)=O)C2(F)CC2)cc2cn(C3CC3)nc12` [Example 749]: the EC50 was under 0.2 µM in test [1] (setting [3]) and under 0.5 µM in test [2].

Take `COc1ccc(C(=O)NC[C@](O)(c2cc3c(c(-c4ccc5c(c4)OC(F)(F)O5)n2)OC[C@]3(C)C(N)=O)C(F)(F)F)n2ccnc12` [Example 700]: the results for the EC50 in test [1] (setting [3]) and in test [2] were under 0.2 µM and over 0.5 µM, respectively.

Turning to `C[C@]1(C(N)=O)COc2c1cc([C@@](O)(CNC(=O)c1cc(Cl)c3nn(C4CC4)cc3c1)C1(F)CC1)nc2-c1ccc(F)c(F)c1F` [Example 757], the EC50 was under 0.2 µM in test [1] (setting [3]) and under 0.5 µM in test [2].

With `COc1cc(C(=O)NC[C@](O)(c2cc3c(c(-c4ccc(F)c(C(F)(F)F)c4)n2)OC[C@]3(C)C(N)=O)C2CC2)cc2cn(C3(Cl)CC3)nc12` [Example 845], the EC50 is under 0.2 µM in test [1] (setting [4]) and under 0.5 µM in test [2].

As for `COc1cc(C(=O)NC[C@](O)(c2cc3c(c(-c4cccc(Br)c4F)n2)OC[C@]3(C)C(N)=O)C2CC2)cc2cn(C3CC3)nc12` [Example 1085], the EC50 in test [1] (setting [4]) was under 0.2 µM; in test [2], under 0.5 µM.

Take `COc1cc(C(=O)NC[C@](O)(c2cc3c(c(-c4cccc(F)c4Cl)n2)OC[C@]3(C)C(N)=O)C2CC2)cc2cc(Br)c(C)nc12` [Example 1126]: the EC50 was under 0.2 µM in test [1] (setting [4]) and under 0.5 µM in test [2].

Consider `COc1cc(C(=O)NC[C@](O)(c2nc(-c3ccc4c(c3)OC(F)(F)O4)c3c(c2F)[C@@](C)(C(N)=O)CO3)C2CC2)cc2cn(C3CC3)nc12` [Example 857], for which the EC50 in test [1] (setting [4]) was under 0.2 µM; in test [2] it was under 0.5 µM.

Take `C[C@]1(C(N)=O)COc2c1cc([C@@](O)(CNC(=O)c1ccc(F)c(NC(=O)NC3CC3)c1)C(F)(F)F)nc2-c1ccc(F)c(Cl)c1` [Example 626]: the EC50 in test [1] (setting [3]) is under 0.2 µM; in test [2] it was over 0.5 µM.

On to `COc1cc(C(=O)NC[C@](O)(c2cc3c(c(-c4ccc(C(F)(F)F)s4)n2)OC[C@]3(C)C(N)=O)C(F)(F)F)cc2cn(C3CC3)nc12` [Example 994], for which the EC50 in test [1] (setting [4]) is under 0.2 µM; in test [2] it was under 0.5 µM.

For the molecule `COc1cc(C(=O)NC[C@](O)(c2cc3c(c(-c4ccc(OCC(F)F)cc4)n2)OC[C@]3(C)C(N)=O)C(F)(F)F)cc2cn(C3CC3)nc12` [Example 979], the EC50 was under 0.2 µM in test [1] (setting [4]) and under 0.5 µM in test [2].

Turning to `COc1cc(C(=O)NC[C@](O)(c2cc3c(c(-c4ccc(C(F)(F)F)cc4)n2)OC[C@]3(C)C(N)=O)C2CC2)cc2cn(C3(F)CC3)nc12` [Example 794], the values for the EC50 in test [1] (setting [3]) and in test [2] were under 0.2 µM and under 0.5 µM, respectively.

On to `COc1cc(C(=O)NC[C@](O)(c2cc3c(c(-c4c(F)cc(Cl)cc4F)n2)OC[C@]3(C)C(N)=O)C(F)(F)F)cc2cn(C3CC3)nc12` [Example 961], for which the EC50 was under 0.2 µM in test [1] (setting [4]) and under 0.5 µM in test [2].

`COc1cc(C(=O)NCC(O)(c2cc3c(c(-c4ccc(OC(F)(F)F)c(F)c4)n2)OC[C@]3(C)C(N)=O)C(F)(F)F)cc2cn(C3CC3)nc12` (stereo partly drawn) [Example 927]: the EC50 in test [1] (setting [4]) was under 0.2 µM; in test [2], over 0.5 µM.

Take `Cc1cnc2c(OC(F)F)cc(C(=O)NC[C@](O)(c3cc4c(c(-c5ccc(F)cc5)n3)OC[C@@]4(CF)C(N)=O)C3CC3)cc2c1` [Example 1057]: the EC50 in test [1] (setting [4]) is over 0.2 µM; in test [2], over 0.5 µM.

As to `Cc1cnc2c(OC(F)F)cc(C(=O)NC[C@](O)(c3cc4c(c(-c5ccc6c(c5)OC(F)(F)O6)n3)OC[C@@]4(C(N)=O)C(F)F)C(F)(F)F)cc2c1` [Example 1043], the EC50 is under 0.2 µM in test [1] (setting [4]) and under 0.5 µM in test [2].
